Conditions: Liquid, Drop volume

CCCCCCCCCCCCCCCC [hexadecane] + O=C=O
interfacial tension [mN/m]
Conditions | 313.15 K | 333.15 K | 353.15 K | 373.15 K | 393.15 K
340 kPa | 22.39 | 20.59 | 19.15 | 17.84 | 16.46
690 kPa | 21.67 | 20.1 | 18.65 | 17.27 | 16.12
1030 kPa | 20.89 | 19.32 | 18.15 | 16.85 | 15.79
1380 kPa | 20.29 | 18.89 | 17.69 | 16.47 | 15.54
1720 kPa | 19.42 | 18.21 | 17.21 | 15.99 | 15.11
2070 kPa | 18.39 | 17.8 | 16.74 | 15.67 | 14.81
2410 kPa | 17.81 | 17.01 | 16.21 | 15.29 | 14.49
2760 kPa | 17.21 | 16.38 | 15.71 | 14.94 | 14.18
3100 kPa | 16.29 | 15.94 | 15.31 | 14.48 | 13.77
3450 kPa | 15.49 | 15.36 | 14.82 | 14.21 | 13.52
3800 kPa | 14.85 | 14.8 | 14.37 | 13.89 | 13.2
4140 kPa | 13.94 | 14.23 | 13.88 | 13.49 | 12.84
4480 kPa | 13.36 | 13.77 | 13.31 | 13 | 12.59
4830 kPa | 12.38 | 12.89 | 12.89 | 12.58 | 12.3
5170 kPa | 11.9 | 12.49 | 12.44 | 12.15 | 12.06
5510 kPa | 11.18 | 11.68 | 11.81 | 11.89 | 11.63
5860 kPa | 10.46 | 11.11 | 11.48 | 11.47 | 11.41
6200 kPa | 9.57 | 10.36 | 11.15 | 11.11 | 11.18
6550 kPa | 8.63 | 9.68 | 10.74 | 10.79 | 10.81
6890 kPa | 7.78 | 9.16 | 10.05 | 10.28 | 10.56
7240 kPa | 7.22 | 8.82 | 9.74 | 9.9 | 10.19
7580 kPa | 6.26 | 8.16 | 9.44 | 9.57 | 9.82
7930 kPa | 5.48 | 7.52 | 8.98 | 9.35 | 9.52
8270 kPa | 4.79 | 6.86 | 8.35 | 8.84 | 9.23
8620 kPa | 4.24 | 6.32 | 7.67 | 8.27 | 8.84
8960 kPa | 3.49 | 5.81 | 7.42 | 7.87 | 8.58
9310 kPa | 2.7 | 5.19 | 6.95 | 7.65 | 8.16
9650 kPa | – | 4.57 | 6.06 | 7.15 | 7.92
10000 kPa | – | 4 | 5.78 | 6.74 | 7.61
10340 kPa | – | 3.45 | 5.11 | 6.41 | 7.27
10690 kPa | – | 2.94 | 4.84 | 6.16 | 6.99
11030 kPa | – | 2.38 | 4.48 | 5.64 | 6.75
11380 kPa | – | – | 4.04 | 5.28 | 6.42

CCCCCCC [heptane] + O=C=O
interfacial tension [mN/m]
Conditions | 313.15 K | 333.15 K | 353.15 K | 373.15 K | 393.15 K
340 kPa | 16.27 | 14.24 | 12.36 | 11 | 9.62
690 kPa | 15.56 | 13.68 | 11.92 | 10.64 | 9.29
1030 kPa | 14.88 | 13.1 | 11.46 | 10.29 | 8.99
1380 kPa | 14.23 | 12.54 | 10.99 | 9.87 | 8.73
1720 kPa | 13.42 | 12 | 10.6 | 9.54 | 8.45
2070 kPa | 12.71 | 11.38 | 10.13 | 9.27 | 8.23
2410 kPa | 12.05 | 10.8 | 9.78 | 8.84 | 7.93
2760 kPa | 11.17 | 10.2 | 9.24 | 8.45 | 7.63
3100 kPa | 10.54 | 9.62 | 8.71 | 8.1 | 7.32
3450 kPa | 9.76 | 8.92 | 8.19 | 7.67 | 7.1
3800 kPa | 9.04 | 8.32 | 7.86 | 7.35 | 6.84
4140 kPa | 8.36 | 7.76 | 7.34 | 7 | 6.61
4480 kPa | 7.47 | 7.23 | 6.95 | 6.68 | 6.25
4830 kPa | 6.74 | 6.66 | 6.5 | 6.35 | 6
5170 kPa | 5.87 | 6.1 | 6.11 | 5.95 | 5.74
5510 kPa | 5.1 | 5.58 | 5.83 | 5.68 | 5.44
5860 kPa | 4.23 | 5.11 | 5.46 | 5.41 | 5.24
6200 kPa | 3.59 | 4.61 | 4.95 | 5.08 | 4.96
6550 kPa | 3.07 | 4.04 | 4.41 | 4.69 | 4.68
6890 kPa | 2.39 | 3.52 | 4.01 | 4.38 | 4.37
7240 kPa | – | 3.02 | 3.61 | 3.94 | 4.1
7580 kPa | – | 2.4 | 3.22 | 3.67 | 3.81

Reference: the NIST ThermoML archive (doi:10.1021/je301283e)
